According to publication PMC10379611 (International Journal of Molecular Sciences, 2023):
Values joined by “and” are separate entries in the source; they are usually repeats but may differ in a detail not shown here. Equal values may be shown once.

Tests used:
[1] = test system: SARS-CoV-2; design: method as in PMID 34726479; details: cell culture tests; cited from earlier work
[2] = test system: OATP1B1; details: read-out: IC50 of OATP1B1; rosuvastatin transport; cited from earlier work
[3] = cited from earlier work
[4] = molecular target: T1, ENT1 (Homo sapiens, UniProt Q99808); assay: ENT1-mediated uridine uptake in ENT1-MDCKII cells; format: cell-based
T1 construct: expressed in transfected cells; host or cells: MDCKII (lentiviral transduction)
T1 sequence (Q99808 1-456): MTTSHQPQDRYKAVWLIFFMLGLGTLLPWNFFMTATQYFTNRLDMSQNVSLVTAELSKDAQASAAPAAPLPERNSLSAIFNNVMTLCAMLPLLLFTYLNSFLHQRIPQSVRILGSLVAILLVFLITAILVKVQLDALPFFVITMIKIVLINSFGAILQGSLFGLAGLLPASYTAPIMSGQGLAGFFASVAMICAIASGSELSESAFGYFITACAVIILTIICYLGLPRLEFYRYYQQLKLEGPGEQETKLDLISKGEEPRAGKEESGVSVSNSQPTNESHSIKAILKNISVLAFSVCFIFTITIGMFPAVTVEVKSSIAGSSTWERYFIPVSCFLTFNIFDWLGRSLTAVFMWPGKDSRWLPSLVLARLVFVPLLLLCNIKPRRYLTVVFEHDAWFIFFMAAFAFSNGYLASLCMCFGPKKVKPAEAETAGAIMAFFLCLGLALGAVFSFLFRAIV
Experimental: ENT and CNT transporter interactions were investigated in transporter-overexpressing cell lines. Madin-Darby Canine Kidney II (MDCKII) cell lines overexpressing the human uptake transporters CNT1, CNT2, ENT1, and ENT2 were generated via lentiviral transduction. Cell cultures were maintained in Dulbecco’s modified Eagle’s medium (DMEM) and 4500 mg/L of glucose supplemented with GlutaMax^TM, 10% v/v fetal bovine serum (FBS), 100 units/mL penicillin, and 100 µg/mL streptomycin (all from Gibco/ThermoFisher, Waltham, MA, USA) at 37 °C in 5% CO2 at 95% humidity. For uptake inhibition assays, transporter-expressing cells and mock-transduced control cells were seeded on 96-well tissue culture plates at a density of 1 × 10^5 cells/well. […] To determine the amounts of accumulated radiolabeled substrates, cell lysates mixed with a liquid scintillation cocktail were measured with a MicroBeta2 microplate counter (PerkinElmer, Singapore).
Transporter-specific accumulation of the probe substrate was calculated using the following formula: ACCSpec = ACCTRP − ACCMock, where ACCTRP is the accumulation of the probe in transporter-expressing cells and ACCMock is the accumulation of the probe in control cells. Relative transporter-specific accumulation values were calculated as percentages of the control value (with vehicle only).

[5] = molecular target: T2, ABCC4 (MRP4) (Homo sapiens, UniProt O15439); assay: ABCC4 vesicular transport (DHEAS), HEK293 inverted membrane vesicles; format: biochemical; details: concentrations up to 200 μM
T2 construct: purchased Solvo Biotechnology, Budapest; host or cells: HEK293
T2 sequence (O15439 1-1325): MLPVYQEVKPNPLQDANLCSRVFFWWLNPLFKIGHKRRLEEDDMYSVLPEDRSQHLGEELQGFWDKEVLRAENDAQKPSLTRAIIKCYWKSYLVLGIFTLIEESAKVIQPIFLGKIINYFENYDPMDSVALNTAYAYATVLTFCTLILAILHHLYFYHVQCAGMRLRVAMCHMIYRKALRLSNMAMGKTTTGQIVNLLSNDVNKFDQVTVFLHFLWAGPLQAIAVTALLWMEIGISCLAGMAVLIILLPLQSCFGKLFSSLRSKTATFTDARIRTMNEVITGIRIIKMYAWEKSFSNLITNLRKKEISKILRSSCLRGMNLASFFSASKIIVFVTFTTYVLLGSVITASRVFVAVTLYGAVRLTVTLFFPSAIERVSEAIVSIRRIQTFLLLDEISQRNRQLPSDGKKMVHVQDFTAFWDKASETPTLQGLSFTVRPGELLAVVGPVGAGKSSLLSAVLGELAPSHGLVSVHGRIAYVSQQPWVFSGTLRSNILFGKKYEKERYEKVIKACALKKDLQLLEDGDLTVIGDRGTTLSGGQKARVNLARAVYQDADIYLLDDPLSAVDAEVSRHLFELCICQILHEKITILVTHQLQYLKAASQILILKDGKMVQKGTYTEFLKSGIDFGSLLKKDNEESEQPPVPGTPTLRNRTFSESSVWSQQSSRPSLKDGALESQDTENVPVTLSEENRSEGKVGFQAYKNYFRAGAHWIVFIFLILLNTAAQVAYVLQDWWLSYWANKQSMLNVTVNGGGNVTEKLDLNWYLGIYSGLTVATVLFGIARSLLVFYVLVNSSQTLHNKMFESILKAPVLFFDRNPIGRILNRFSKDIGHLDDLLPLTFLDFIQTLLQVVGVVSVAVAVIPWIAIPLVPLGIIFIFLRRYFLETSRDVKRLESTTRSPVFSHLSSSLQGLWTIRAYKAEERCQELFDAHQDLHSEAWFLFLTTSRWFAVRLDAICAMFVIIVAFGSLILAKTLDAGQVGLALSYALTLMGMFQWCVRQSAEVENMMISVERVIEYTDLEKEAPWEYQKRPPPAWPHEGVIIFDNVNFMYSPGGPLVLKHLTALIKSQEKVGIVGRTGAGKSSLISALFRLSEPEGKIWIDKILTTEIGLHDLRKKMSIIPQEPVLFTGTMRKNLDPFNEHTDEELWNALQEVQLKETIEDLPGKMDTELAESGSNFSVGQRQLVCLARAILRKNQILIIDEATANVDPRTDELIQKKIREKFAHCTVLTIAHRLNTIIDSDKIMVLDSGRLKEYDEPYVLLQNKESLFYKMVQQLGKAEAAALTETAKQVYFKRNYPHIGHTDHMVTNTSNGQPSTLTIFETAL

Row | SMILES | antiviral activity against SARS-CoV-2 [1] | IC50 [2] | plasma peak concentration ([3]; Paxlovid 300 mg Nirmatrelvir and 100 mg Ritonavir twice daily, listed as NIR) | observed plasma concentrations ([3]; recommended clinical dose of Paxlovid) | ENT1-mediated uridine transport, inhibited to % of the full activity ([4]; at 200 μM) | effect on ATP-dependent DHEAS uptake by ABCC4/MRP4 [5] | ENT1 uridine transport remaining, % of full activity at 200 µM ([4]; read-out: ENT1-mediated uridine transport, inhibited to % of the full activity)
1 | CC(C)(C)[C@H](NC(=O)C(F)(F)F)C(=O)N1C[C@H]2[C@@H]([C@H]1C(=O)N[C@H](C#N)C[C@@H]1CCNC1=O)C2(C)C [Nirmatrelvir] | nanomolar range | […] | […] | […] |  |  | 
2 | O=c1nc(NO)ccn1[C@@H]1O[C@H](CO)[C@@H](O)[C@H]1O [EIDD-1931] |  |  |  |  | about 50% | no significant effects | 
3 | CC(C)C(=O)OC[C@H]1O[C@@H](n2ccc(NO)nc2=O)[C@H](O)[C@@H]1O [EIDD-2801, Molnupiravir] |  |  |  |  |  | no significant effects | ~50%
